Article PMC9387934, “Randomized single oral dose phase 1 study of safety, tolerability, and pharmacokinetics of Iminosugar UV-4 Hydrochloride (UV-4B) in healthy subjects” (PLoS Neglected Tropical Diseases, 2022)
Structures can show the parent of a compound that is named as a salt.

Legend:
CYP1A2 = test system: CYP1A2; set-up: method as in Investigator’s Brochure (IB); conditions: in vitro; ref Investigator’s Brochure (IB); cited from earlier work
[1] = Phase 1a single ascending dose study: safety and tolerability (treatment-emergent adverse events); format: in vivo, human; conditions: for Tolerability of single oral doses / Dose-limiting toxicity: po; for Maximum tolerated dose: single oral dose in humans, not yet determined
Experimental: UV-4 ((2R,3R,4R,5S)-2-(hydroxymethyl)-1-(9-methoxynonyl)piperidine-3,4,5-triol, also called N-(9’-methoxynonyl)-1-deoxynojirimycin, or MON-DNJ) hydrochloride was evaluated in a first-in-human, randomized, single-center, double-blind, placebo-controlled, parallel group, single ascending dose Phase 1a clinical trial in healthy subjects (Figs 1 and 2, ClinicalTrials.gov Identifier NCT02061358 https://clinicaltrials.gov/ct2/show/NCT02061358). The primary objective was to determine the safety and tolerability of a single-ascending oral dose of UV-4 hydrochloride (Fig 3). […] The secondary objective was to determine PK parameters describing absorption and elimination of UV-4 following a single oral dose of UV-4 hydrochloride. Eight cohorts of eight subjects each were enrolled and completed the study. In each cohort, six subjects received UV-4 as the hydrochloride; two received placebo. Subjects were screened against study eligibility criteria up to four weeks (Days -28 to -2) before admission to the clinic (Day -1). Dosing was performed on an inpatient basis. Subjects remained in clinic for 48 hours post-dosing for PK sample collection and safety assessments and were discharged from the clinic on Day 3. Subjects returned to the clinic on Day 4 for additional safety assessments, then again on Day 9 ± 1 for a final follow-up visit.
Safety assessments included telemetry (pre-dose and 12 hours during and post-dosing), 12-lead ECG measurements, vital signs (supine and standing) including systolic blood pressure (SBP) and diastolic blood pressure (DBP) (mmHg), pulse rate (beats/minute), respiratory rate (breaths/minute), and oral temperature, physical examinations, clinical laboratory assessments (hematology, clinical chemistry, coagulation, urinalysis, platelet function), stool evaluation including occult blood, and adverse events (AEs).
Safety oversight was provided by an independent safety monitor (ISM), Safety Review Committee (SRC), and Safety Monitoring Committee (SMC). In addition, a cardiologist reviewed all cases with AEs related to heart rate and blood pressure. Summary statistics for subject baseline characteristics and measurements, disposition, exposure, and safety were tabulated by cohort in a blinded manner for the review by the SRC and SMC. Blinded individual case information was also supplied to the SMC and cardiologist for review. SRC reviews occurred after all subjects in a given cohort completed evaluations, or after predefined criteria triggered a review (halting criteria). Provided satisfactory safety review, subjects were enrolled into the next higher dose cohort. In addition, the SMC met to review all safety and exposure data after completion of Cohort 3. All AEs were coded to System Organ Class (SOC) and Preferred Term (PT) using the Medical Dictionary for Regulatory Activities (MedDRA), Version 16.1 [34].
All AEs were graded for severity and relationship to study product, according to one of the following categories:
• Grade 1: An event that is easily tolerated by the subject, causing minimal discomfort and not interfering with everyday activities; • Grade 2: An event that is sufficiently discomforting to interfere with normal everyday activities; • Grade 3: An event that prevents normal everyday activities; • Grade 4: An event that requires an emergency room visit or hospitalization […]
9.1 Specification of Safety Parameters
Safety is a primary outcome measure.
Adverse events will be evaluated from time of dose administration through the follow-up visit. Adverse events that have not resolved at the follow-up visit will be followed until resolution or until medically stable. […]
If a vital sign measurement is observed to be abnormal, it may be repeated up to a total of 2 times at 5 to 10 minutes intervals. If a normal value is obtained, no further repeat measurements are required. If the value is still abnormal after 2 repeats, the least abnormal value will be utilized for grading the AE. The AE will […]

CYP2C8 = test system: CYP2C8; set-up: method as in Investigator’s Brochure (IB); conditions: in vitro; ref Investigator’s Brochure (IB); cited from earlier work
[2] = ICH accelerated stability storage condition; cited from earlier work
[3] = set-up: method as in Investigator’s Brochure (IB); conditions: mice, up to 250 mg/kg TID (750 mg/kg/day); ref Investigator’s Brochure (IB); cited from earlier work

SMILES: COCCCCCCCCCN1C[C@H](O)[C@@H](O)[C@H](O)[C@H]1CO [UV-4, N-(9’-methoxynonyl)-1-deoxynojirimycin]
- Direct inhibition of CYP1A2 (CYP1A2): No clinically relevant direct inhibition
- Grade 2 Related TEAE: number (%) of subjects ([1]; both, human, in vivo): 1 (2.1%)
- Grade 3 Related TEAE: number (%) of subjects ([1]; both, human, in vivo): 0
- Grade 3 TEAE: number (%) of subjects ([1]; both, human, in vivo): 1 (2.1%)
- Incidence of Bristol Stool Scale Type 7 ([1]; both, human, in vivo): no incidence of Bristol Stool Scale Type 7
- Related TEAE, Abdominal Pain: number (%) of subjects ([1]; both, human, in vivo): 1 (2.1%)
- Related TEAE, Balance disorder: number (%) of subjects ([1]; both, human, in vivo): 1 (2.1%)
- Related TEAE, Blood Calcium Decreased: number (%) of subjects ([1]; both, human, in vivo): 1 (2.1%)
- Related TEAE, Blood Pressure Decreased: number (%) of subjects ([1]; both, human, in vivo): 0
- Related TEAE, Cardiac disorders (System Organ Class): number (%) of subjects ([1]; both, human, in vivo): 1 (2.1%)
- Related TEAE, Dizziness postural: number (%) of subjects ([1]; both, human, in vivo): 1 (2.1%)
- Related TEAE, Dizziness: number (%) of subjects ([1]; both, human, in vivo): 1 (2.1%)
- Related TEAE, Ear and labyrinth disorders (System Organ Class): number (%) of subjects ([1]; both, human, in vivo): 1 (2.1%)
- Related TEAE, Gastrointestinal disorders (System Organ Class): number (%) of subjects ([1]; both, human, in vivo): 3 (6.3%)
- Related TEAE, General disorders and administration site conditions (System Organ Class): number (%) of subjects ([1]; both, human, in vivo): 1 (2.1%)
- Related TEAE, Headache: number (%) of subjects ([1]; both, human, in vivo): 2 (4.2%)
- Related TEAE, Investigations (System Organ Class): number (%) of subjects ([1]; both, human, in vivo): 2 (4.2%)
- Related TEAE, Lipase increased: number (%) of subjects ([1]; both, human, in vivo): 1 (2.1%)
- Related TEAE, Local Swelling: number (%) of subjects ([1]; both, human, in vivo): 1 (2.1%)
- Related TEAE, Nervous system disorder (System Organ Class): number (%) of subjects ([1]; both, human, in vivo): 4 (8.3%)
- Related TEAE, Neutrophil count decreased: number (%) of subjects ([1]; both, human, in vivo): 0
- Related TEAE, Presyncope: number (%) of subjects ([1]; both, human, in vivo): 0
- Related TEAE, Proteinuria: number (%) of subjects ([1]; both, human, in vivo): 1 (2.1%)
- Related TEAE, Renal and urinary disorders (System Organ Class): number (%) of subjects ([1]; both, human, in vivo): 1 (2.1%)
- Related TEAE, Supraventricular tachycardia: number (%) of subjects ([1]; both, human, in vivo): 0
- Related TEAE, Ventricular tachycardia: number (%) of subjects ([1]; both, human, in vivo): 1 (2.1%)
- Related TEAE, Vertigo: number (%) of subjects ([1]; both, human, in vivo): 1 (2.1%)
- Related TEAE, White blood cell count decreased: number (%) of subjects ([1]; both, human, in vivo): 0
- Subjects with ≥1 TEAE: number (%) of subjects ([1]; both, human, in vivo): 43 (89.6%)
- Tolerability of single oral doses ([1]; both, human, in vivo): safe at all doses tested up to 1000 mg
- Grade 1 Related TEAE: number (%) of subjects ([1]; human, in vivo): 10 (20.8%)
- TEAE Haematuria: number (%) of subjects ([1]; human, in vivo): 4 (8.3)
- TEAE Headache: number (%) of subjects ([1]; human, in vivo): 3 (6.3)
- TEAE Prothrombin time prolonged: number (%) of subjects ([1]; human, in vivo): 4 (8.3)
- Dose-dependent increases in adverse events ([1]; in vivo): not observed
- Fecal occult blood findings ([1]; in vivo): None of the subjects had positive fecal occult blood findings
- Subjects reporting abdominal pain ([1]; in vivo): two
- Subjects who vomited ([1]; in vivo): one
- Dose-limiting toxicity ([1]; in vivo): No dose limiting toxicity was observed
- Tolerability of single oral doses ([1]; in vivo): well tolerated
- Maximum tolerated dose [1]: > 1000 mg
- Direct inhibition of CYP2C8 (CYP2C8): No clinically relevant direct inhibition

SMILES: COCCCCCCCCCN1C[C@H](O)[C@@H](O)[C@H](O)[C@H]1CO [UV-4B, N-(9’-methoxynonyl)-1-deoxynojirimycin hydrochloride]
- Related TEAE, Balance disorder: number (%) of subjects ([1]; both, human, in vivo): 1/48
- Related TEAE, Dizziness postural: number (%) of subjects ([1]; both, human, in vivo): 1/48
- Related TEAE, Dizziness: number (%) of subjects ([1]; both, human, in vivo): 1/48
- Related TEAE, Headache: number (%) of subjects ([1]; both, human, in vivo): 2/48
- Dose-limiting toxicity ([1]; in vivo): not observed
- Maximum tolerated dose [1]: > 1000 mg
- Stability trend of drug substance batches [2]: increases in water content
- CNS assessments [3]: no adverse treatment-related effects
